Laboratory results from patent US20140024662A1, “COMPOUNDS, SCREENS, AND METHODS OF TREATMENT” (Shanghai Institute of Organic Chemistry, priority 2006, published 2014).
pEC50: −log10 of the molar value. Entries after “also recorded” stand apart in the source; their conditions may differ. Read-outs that look alike come from different tables or passages of the source.

System: FADD-deficient Jurkat cells
Test: necroptosis assay: FADD-deficient Jurkat cells treated with TNFα, cell viability
Type: cell-based, human
Conditions: for activity in the necroptosis assay, in words / Max Prot: FADD-deficient Jurkat cells treated with TNFα; for Max Prot: max viability obtained in the presence of a compound; call rule not given here
Description: Herein we describe the structure activity analysis of Nec-5 analogs.

[1] = effective concentration for half-maximum response, inhibition of necroptosis in FADD-deficient Jurkat cells treated with TNFα, read-out: EC50
[2] = effective concentration for half-maximum response, inhibition of necroptosis in FADD-deficient Jurkat cells treated with TNFα

Compound	activity in the necroptosis assay, in words	Max Prot	pEC50 [1]	EC50 [2]	further results
COc1ccc(-n2c(SCC#N)nc3sc4c(c3c2=O)CCCC4)cc1 [Compound 1, 3-p-methoxyphenyl-5,6-tetra-methylenothieno-[2,3-d]-pyrimidin-4-one-2-mercaptoethylcyanide]	prevents the death	100%	–	–	pEC50 (Homo sapiens, Jurkat): 6.62
COc1ccc(-n2c(SC)nc3sc4c(c3c2=O)CCCC4)cc1 [Compound 6]	reserves its activity to a significant extent	71%	6.62	–	–
CCSc1nc2sc3c(c2c(=O)n1-c1ccc(OC)cc1)CCCC3 [Compound 7]	–	–	–	inactive	–
CCCSc1nc2sc3c(c2c(=O)n1-c1ccc(OC)cc1)CCCC3 [Compound 8]	–	–	–	inactive	–
CCCCSc1nc2sc3c(c2c(=O)n1-c1ccc(OC)cc1)CCCC3 [Compound 9]	–	–	–	inactive	–
CCCCCSc1nc2sc3c(c2c(=O)n1-c1ccc(OC)cc1)CCCC3 [Compound 10]	–	–	–	inactive	–
CCCCCCSc1nc2sc3c(c2c(=O)n1-c1ccc(OC)cc1)CCCC3 [Compound 11]	–	–	–	inactive	–
C=CCSc1nc2sc3c(c2c(=O)n1-c1ccc(OC)cc1)CCCC3 [Compound 12]	–	–	–	inactive	–
C#CCSc1nc2sc3c(c2c(=O)n1-c1ccc(OC)cc1)CCCC3 [Compound 13]	exhibited some activity	80.7%	5.22	–	–
COc1ccc(-n2c(SCc3ccccc3)nc3sc4c(c3c2=O)CCCC4)cc1 [Compound 14]	completely destroyed the activity	–	–	inactive	–
COc1ccc(-n2c(SCc3ccc(C)cc3)nc3sc4c(c3c2=O)CCCC4)cc1 [Compound 15]	–	–	–	inactive	–
COc1ccc(CSc2nc3sc4c(c3c(=O)n2-c2ccc(OC)cc2)CCCC4)cc1 [Compound 16]	–	–	–	inactive	–
COc1ccc(-n2c(SCc3ccc([N+](=O)[O-])cc3)nc3sc4c(c3c2=O)CCCC4)cc1 [Compound 17]	–	–	–	inactive	–
COc1ccc(-n2c(SCC(C)=O)nc3sc4c(c3c2=O)CCCC4)cc1 [Compound 18]	–	–	–	inactive	–
COC(=O)CSc1nc2sc3c(c2c(=O)n1-c1ccc(OC)cc1)CCCC3 [Compound 19]	completely destroyed the activity	–	–	inactive	–
COc1ccc(-n2c(SCC(N)=O)nc3sc4c(c3c2=O)CCCC4)cc1 [Compound 20]	–	–	–	inactive	–
COc1ccc(-n2c(SC(C)=O)nc3sc4c(c3c2=O)CCCC4)cc1 [Compound 21]	–	–	–	inactive	–
CCCC(=O)Sc1nc2sc3c(c2c(=O)n1-c1ccc(OC)cc1)CCCC3 [Compound 22]	–	–	–	inactive	–
COc1ccc(-n2c(SC(=O)c3ccccc3)nc3sc4c(c3c2=O)CCCC4)cc1 [Compound 23]	–	–	–	inactive	–
COc1ccc(-n2c(SCCC#N)nc3sc4c(c3c2=O)CCCC4)cc1 [Compound 24]	retained some activity	70%	5.28	–	–
COc1ccc(-n2c(SCCl)nc3sc4c(c3c2=O)CCCC4)cc1 [Compound 25]	exhibited some activity	85%	5.65	–	–

Compound	activity in the necroptosis assay, in words	Max Prot	pEC50 [1]	EC50 [2]	further results
COc1ccc(-n2c(SC[N+](=O)[O-])nc3sc4c(c3c2=O)CCCC4)cc1 [Compound 26]	completely destroyed the activity	–	–	inactive	–
COc1ccc(-n2c(SCC(=O)Nc3ccccc3C(F)(F)F)nc3sc4c(c3c2=O)CCCC4)cc1 [Compound 27]	–	–	–	inactive	–
COc1ccc(-n2c(SCC(C)O)nc3sc4c(c3c2=O)CCCC4)cc1 (centres unmarked) [Compound 28]	–	–	–	inactive	–
COc1ccc(-n2c(SCC(=O)O)nc3sc4c(c3c2=O)CCCC4)cc1 [Compound 29]	–	–	–	inactive	–
COc1ccc(-n2c([S+](C)[O-])nc3sc4c(c3c2=O)CCCC4)cc1 (centres unmarked) [Compound 30]	complete loss of activity	–	–	inactive	–
COc1ccc(-n2c(S(C)(=O)=O)nc3sc4c(c3c2=O)CCCC4)cc1 [Compound 31]	complete loss of activity	–	–	inactive	–
N#CCSc1nc2sc3c(c2c(=O)n1-c1ccccc1)CCCC3 [Compound 32]	inactive	–	–	inactive	–
COc1ccccc1-n1c(SCC#N)nc2sc3c(c2c1=O)CCCC3 [Compound 33]	–	51.2%	4.75	–	–
COc1cccc(-n2c(SCC#N)nc3sc4c(c3c2=O)CCCC4)c1 [Compound 34]	–	87.7%	5.84	–	–
CCOc1ccc(-n2c(SCC#N)nc3sc4c(c3c2=O)CCCC4)cc1 [Compound 35]	retained some activity; also recorded: showed significant higher activity compared to compound (154)	83.8%	6.26	–	–
N#CCSc1nc2sc3c(c2c(=O)n1-c1ccc(OCc2ccccc2)cc1)CCCC3 [Compound 36]	–	–	–	inactive	–
Cc1ccccc1-n1c(SCC#N)nc2sc3c(c2c1=O)CCCC3 [Compound 37]	–	–	–	inactive	–
Cc1ccc(-n2c(SCC#N)nc3sc4c(c3c2=O)CCCC4)cc1 [Compound 38]	retained some activity	48.6%	5.74	–	–
N#CCSc1nc2sc3c(c2c(=O)n1-c1ccc(F)cc1)CCCC3 [Compound 39]	retained significant activity; also recorded: showed substantial activity; also recorded: decreased activity	85.1%	6.62	–	–
N#CCSc1nc2sc3c(c2c(=O)n1-c1cccc(Cl)c1)CCCC3 [Compound 40]	–	66.9%	5.29	–	–
N#CCSc1nc2sc3c(c2c(=O)n1-c1ccc(Cl)cc1)CCCC3 [Compound 41]	activity significantly decreased	55.0%	5.07	–	–
N#CCSc1nc2sc3c(c2c(=O)n1-c1ccc(Br)cc1)CCCC3 [Compound 42]	activity significantly decreased	–	–	inactive	–
Cc1ccc(-n2c(SCC#N)nc3sc4c(c3c2=O)CCCC4)cc1C [Compound 43]	–	45.0%	4.78	–	–
N#CCSc1nc2sc3c(c2c(=O)n1-c1ccc(Cl)c(Cl)c1)CCCC3 [Compound 44]	–	39.0%	5.24	–	–
N#CCSc1nc2sc3c(c2c(=O)n1-c1ccc(F)c(F)c1)CCCC3 [Compound 45]	–	–	–	inactive	–
COc1ccc(-n2c(SCC#N)nc3sc4c(c3c2=O)CCCC4)c(OC)c1 [Compound 46]	eliminated activity	–	–	inactive	–

Compound	activity in the necroptosis assay, in words	Max Prot	pEC50 [1]	EC50 [2]	further results
COc1ccc(-n2c(SCC#N)nc3sc4c(c3c2=O)CCCC4)cc1OC [Compound 47]	–	57.0%	5.24	–	–
N#CCCSc1nc2sc3c(c2c(=O)n1-c1ccc2c(c1)OCO2)CCCC3 [Compound 48, 3-(3′,4′)-methylene-dioxyphenyl-5,6-tetramethylenothieno[2,3-d]pyrimidin-4-one-2-mercaptoethylcyanide]	showed good activity; also recorded: showed substantial activity; also recorded: showed significant activity	100%	6.05	–	–
CSc1ccc(-n2c(SCC#N)nc3sc4c(c3c2=O)CCCC4)cc1 [Compound 49]	–	70.0%	5.63	–	–
Cc1cc(Cl)ccc1-n1c(SCC#N)nc2sc3c(c2c1=O)CCCC3 [Compound 50]	–	–	–	inactive	–
N#CCSc1nc2sc3c(c2c(=O)n1-c1ccc(OC(F)(F)F)cc1)CCCC3 [Compound 51]	loss of activity	–	–	inactive	–
CSc1nc2sc3c(c2c(=O)n1-c1ccc(OCc2ccccc2)cc1)CCCC3 [Compound 52]	–	–	–	inactive	–
CSc1nc2sc3c(c2c(=O)n1-c1ccc(F)cc1)CCCC3 [Compound 53]	showed some activity	61.2%	5.80	–	–
CSc1nc2sc3c(c2c(=O)n1-c1ccc(Br)cc1)CCCC3 [Compound 54]	–	–	–	inactive	–
CSc1nc2sc3c(c2c(=O)n1-c1ccc(C)c(C)c1)CCCC3 [Compound 55]	–	38.0%	4.78	–	–
CSc1nc2sc3c(c2c(=O)n1-c1ccc(Cl)c(Cl)c1)CCCC3 [Compound 56]	–	–	–	inactive	–
COc1ccc(-n2c(SC)nc3sc4c(c3c2=O)CCCC4)c(OC)c1 [Compound 57]	–	–	–	inactive	–
COc1ccc(-n2c(SC)nc3sc4c(c3c2=O)CCCC4)cc1OC [Compound 58]	showed some activity	54.5%	4.78	–	–
CSc1nc2sc3c(c2c(=O)n1-c1ccc2c(c1)OCO2)CCCC3 [Compound 59]	–	–	–	inactive	–
CSc1cccc(-n2c(SC)nc3sc4c(c3c2=O)CCCC4)c1 [Compound 60]	–	–	–	inactive	–
CSc1nc2sc3c(c2c(=O)n1-c1ccc(Cl)cc1C)CCCC3 [Compound 61]	–	–	–	inactive	–
CSc1nc2sc3c(c2c(=O)n1-c1ccc(OC(F)(F)F)cc1)CCCC3 [Compound 62]	–	–	–	inactive	–
COc1ccc(-n2c(SCC#N)nc3sc(C)cc3c2=O)cc1 [Compound 64]	–	–	–	inactive	–
CCc1cc2c(=O)n(-c3ccc(OC)cc3)c(SCC#N)nc2s1 [Compound 65]	–	–	–	inactive	–
COc1ccc(-n2c(SCC#N)nc3scc(C)c3c2=O)cc1 [Compound 66]	–	–	–	inactive	–
COc1ccc(-n2c(SCC#N)nc3sc(C)c(C)c3c2=O)cc1 [Compound 67]	a high degree of activity is retained; also recorded: showed substantial activity; also recorded: showed significant higher activity compared to compound (154)	100%	6.35	–	–
CCc1sc2nc(SCC#N)n(-c3ccc(OC)cc3)c(=O)c2c1C [Compound 68]	–	86.8%	5.28	–	–
